Each molecule was assayed against T1, Human autotaxin enzyme (Homo sapiens, UniProt Q13822) (assay: Evaluation of autotaxin inhibitor, 18:0 Lyso PC / choline assay (Test Example 2)). Conditions: autotaxin inhibition, IC50 class; read-out: Inhibitor activity.
T1 construct: purchased R&D System
Format: biochemical
Description: Solution B containing 100 mM Tris-HCl buffer (pH7.5), 150 mM NaCl, 5 mM MgCl2, and 0.05% Triton X-100 was prepared. Human autotaxin enzyme (purchased from R&D System) was diluted with Solution B, and 2.5 μl of which was added to a solution of test compound in DMSO. Furthermore, 2.5 μl of 200 μM 18:0 Lyso PC (purchased from Avanti Polar Lipids) in Solution B was added and allowed to react at room temperature for 2 hours. After completion of the reaction, 15 μl of the coline assay reagent. (100 mM Tris-HCl buffer (pH7.5), 5 mM. MgCl2, 77 μg/ml coline oxidase, 10 μg/ml peroxydase, 25μM 10-acetyl-3,7-dihydroxyphenoxazine, and excess autotaxin inhibitor) was added and allowed to react at room temperature for 20 minutes. The fluorescent dye Resorufin, which was produced by the reaction, was detected. The fluorescence was detected using ViewLux
(PerkinElmer, Inc.) with a excitation wavelength of 531 nm and a fluorescence wavelength of 598 nm.
The percent inhibition of the test compound was calculated by assuming the sample with no test compound as 0% inhibition and the sample with no enzyme as 100% inhibition, and the percent inhibitions at different concentrations of the test compound were plotted to obtain a concentration-dependent curve.
In the case of `CC(=O)Nc1cc(Cl)ccc1-c1cc(=O)n(CC(=O)NC2(C#N)CC2)cn1` [Compound I-0249], the IC50 is reported as 100 to 1000 nM.
Work on `COC(=O)Cn1c(CCCC(F)(F)F)nc(-c2ccc(C(F)(F)F)cc2)cc1=O` [Compound I-0254] yielded an IC50 of 10 to 100 nM.

Same assay, conditions: human autotaxin enzyme, 18:0 Lyso PC substrate, choline assay, room temperature 2 hours; read-out: Inhibitor activity (IC50)
For `CC(C)(O)CNC(=O)Cn1c(CCCC(F)(F)F)nc(-c2ccc(C(F)(F)F)cc2)cc1=O` [Compound I-0321], the IC50 was 10 to 100 nM.
Work on `COC(=O)Nc1cc(Cl)ccc1-c1cc(=O)n(Cc2cccc(-c3nc(=O)o[nH]3)c2)c(C)n1` [Compound I-0379] yielded an IC50 of less than 10 nM.
With `CCCCCc1nc(-c2ccc(Cl)cc2)cc(=O)n1CC(=O)NCc1ccc(C(=O)O)cc1` [Compound I-0041] the IC50 was 10 to 100 nM.
With `COC(=O)Nc1cc(C#N)ccc1-c1cc(=O)n(CC(=O)NC2(C#N)CC2)c(C)n1` [Compound I-0394] the IC50 was less than 10 nM.
`Cc1nc(-c2ccc(Cl)cc2NC(=O)C(C)(C)C)cc(=O)n1CC(=O)NCC1(CO)COC1` [Compound I-0317] showed an IC50 of 10 to 100 nM.
`CCCCCNc1nc(-c2ccc(C(F)(F)F)cc2)cc(=O)n1Cc1cccc(C(=O)O)c1` [Compound I-0012] gave an IC50 of 10 to 100 nM.
In the case of `NC(=O)CNC(=O)c1cccc(Cn2c(CCCC(F)(F)F)nc(-c3ccc(Cl)cc3)cc2=O)c1` [Compound I-0168], the IC50 is reported as 100 to 1000 nM.
`COC(=O)Nc1cc(Cl)ccc1-c1cc(=O)n(CC(=O)NC2(C(F)(F)F)CC2)c(C)n1` [Compound I-0455] was tested, and the IC50 was 10 to 100 nM.
`COC(=O)Nc1cc(Cl)ccc1-c1cc(=O)n(CC(=O)NCC2(CO)COC2)c(C)n1` [Compound I-0286] gave an IC50 of 10 to 100 nM.
`O=C(NCCN1CCNC1=O)c1cccc(Cn2c(CCCC(F)(F)F)nc(-c3ccc(Cl)cc3)cc2=O)c1` [Compound I-0171] gave an IC50 of 100 to 1000 nM.
`O=C(Cn1c(CCCC(F)(F)F)nc(-c2ccc(Cl)cc2)cc1=O)NCC1(CO)COC1` [Compound I-0147] showed an IC50 of 10 to 100 nM.
In the case of `NS(=O)(=O)CCNC(=O)Cn1c(CCCC(F)(F)F)nc(-c2ccc(Cl)cc2)cc1=O` [Compound I-0133], the IC50 is reported as 10 to 100 nM.
Molecule `O=C(Cn1c(CCCC(F)(F)F)nc(-c2ccc(Cl)cc2)cc1=O)N1CCOC(CO)C1` (stereo not shown) [Compound I-0139] has an IC50 of 10 to 100 nM.
`CNC(=O)NC1CCN(C(=O)Cn2c(C)nc(-c3ccc(C#N)cc3NC(=O)OC)cc2=O)CC1` [Compound I-0381] was tested, and the IC50 was 10 to 100 nM.
With `CC(C)(C)C(=O)Nc1cc(Cl)ccc1-c1cc(=O)n(CC(=O)NCC2CCC(=O)NC2)cn1` (stereo not shown) [Compound I-0469] the IC50 was 100 to 1000 nM.
`O=C(Cn1c(CCCC(F)(F)F)nc(-c2ccc(C(F)(F)F)cc2)cc1=O)N1CCN(CCO)CC1` [Compound I-0346] showed an IC50 of 10 to 100 nM.
`O=C(N[C@H]1CC[C@H](O)CC1)c1cccc(Cn2c(CCCC(F)(F)F)nc(-c3ccc(Cl)cc3)cc2=O)c1` [Compound I-0174] showed an IC50 of 100 to 1000 nM.
`O=C(O)c1ccc(Cn2c(CCCC(F)(F)F)nc(-c3ccc(Cl)cc3)cc2=O)s1` [Compound I-0293] gave an IC50 of 10 to 100 nM.
Molecule `Cc1nc(-c2ccc(C#N)cc2NC(=O)C(C)(C)C)cc(=O)n1Cc1cccc(C(=O)O)c1` [Compound I-0282] has an IC50 of less than 10 nM.
Molecule `CC(C)(C)C(=O)Nc1cc(Cl)ccc1-c1cc(=O)n(Cc2cccc(C(=O)NCC(N)=O)c2)cn1` [Compound I-0478] has an IC50 of 100 to 1000 nM.
In the case of `COC(=O)Nc1cc(Cl)ccc1-c1cc(=O)n(CC(=O)NC(C)C)c(C)n1` [Compound I-0390], the IC50 is reported as 10 to 100 nM.
`Cc1nc(-c2ccc(Cl)cc2NC(=O)C(C)(C)C)cc(=O)n1CC(=O)NC1(c2nc(=O)o[nH]2)CC1` [Compound I-0386] was tested, and the IC50 was 10 to 100 nM.
Work on `COC(=O)Nc1cc(C#N)ccc1-c1cc(=O)n(CC(=O)NCc2cc(=O)[nH]o2)c(C)n1` [Compound I-0429] yielded an IC50 of less than 10 nM.
`CC(C)(C)NC(=O)Cn1cnc(-c2ccc(Cl)cc2NC(=O)C(C)(C)C)cc1=O` [Compound I-0407] was tested, and the IC50 was 10 to 100 nM.
`Cc1nc(-c2ccc(Cl)cc2NC(=O)C2CC2)cc(=O)n1CC(=O)NC(C)(C)C` [Compound I-0405] showed an IC50 of 10 to 100 nM.
Work on `COC(=O)Nc1cc(C#N)ccc1-c1cc(=O)n(CC(=O)NCC2CNC(=O)C2)c(C)n1` (stereo not shown) [Compound I-0428] yielded an IC50 of 10 to 100 nM.
With `COC(=O)Nc1cc(Cl)ccc1-c1cc(=O)n(CC(=O)N2CCC(O)CC2)c(C)n1` [Compound I-0425] the IC50 was 10 to 100 nM.
In the case of `CCCCCc1nc(-c2ccc(Cl)cc2)cc(=O)n1CC(=O)N1CCOCC1c1ccccc1` (stereo not shown) [Compound I-0076], the IC50 is reported as 100 to 1000 nM.
In the case of `COCCCNC(=O)c1cccc(Cn2c(CCCC(F)(F)F)nc(-c3ccc(Cl)cc3)cc2=O)c1` [Compound I-0161], the IC50 is reported as 100 to 1000 nM.
In the case of `CCCCCc1nc(-c2ccc(Cl)cc2)cc(=O)n1CC(=O)OC` [Compound I-0023], the IC50 is reported as 10 to 100 nM.
Work on `N#CCCN1CCN(C(=O)Cn2c(CCCC(F)(F)F)nc(-c3ccc(Cl)cc3)cc2=O)CC1` [Compound I-0136] yielded an IC50 of 100 to 1000 nM.
In the case of `CCCCCc1nc(-c2ccc(Cl)cc2)cc(=O)n1CC(=O)N(C)CCO` [Compound I-0029], the IC50 is reported as 100 to 1000 nM.
For `CCOCCc1nc(-c2ccc(Cl)cc2)cc(=O)n1CC(=O)NCC1(CO)CC1` [Compound I-0223], the IC50 was 100 to 1000 nM.
`O=C(Cn1c(CCCC(F)(F)F)nc(C2=CCC(C(F)(F)F)CC2)cc1=O)NCC1(CO)COC1` (stereo not shown) [Compound I-0339] was tested, and the IC50 was 10 to 100 nM.
`COC(=O)Nc1cc(C#N)ccc1-c1cc(=O)n(CC(=O)OC(C)(C)C#N)c(C)n1` [Compound I-0373] showed an IC50 of 10 to 100 nM.
`CCCCCn1c(-c2ccc(Cl)cc2)cc(=O)n(CC(=O)NC(Cc2ccccc2)C(=O)O)c1=O` (stereo not shown) [Compound I-0151] gave an IC50 of 100 to 1000 nM.
In the case of `CN(CCC#N)C(=O)c1cccc(Cn2c(CCCC(F)(F)F)nc(-c3ccc(Cl)cc3)cc2=O)c1` [Compound I-0157], the IC50 is reported as 10 to 100 nM.
`CCCCCNc1nc(-c2ccc(C(F)(F)F)cc2)cc(=O)n1Cc1ccc(C(=O)NCC(=O)O)cc1` [Compound I-0018] gave an IC50 of 100 to 1000 nM.
Molecule `CC(C)(C)C(=O)Nc1cc(Cl)ccc1-c1cc(=O)n(Cc2cccc(C(=O)Nc3cnccc3O)c2)cn1` [Compound I-0491] has an IC50 of 100 to 1000 nM.
With `CNc1cc(Cl)ccc1-c1cc(=O)n(CC(=O)NC2(C#N)CC2)c(CCCC(F)(F)F)n1` [Compound I-0224] the IC50 was 100 to 1000 nM.
In the case of `O=C(Cn1c(CCCC(F)(F)F)nc(-c2ccc(C(F)(F)F)cc2)cc1=O)NCC1(CO)COC1` [Compound I-0337], the IC50 is reported as 10 to 100 nM.
Work on `CCCCCc1nc(-c2ccc(Cl)cc2)cc(=O)n1CC(=O)NC(CO)Cc1ccc(F)cc1` (stereo not shown) [Compound I-0075] yielded an IC50 of no less than 1000 nM.
`CCCCCc1nc(-c2ccc(Cl)cc2)cc(=O)n1CC(=O)NCCS(C)(=O)=O` [Compound I-0094] gave an IC50 of 10 to 100 nM.
`CNC(=O)NC1CCN(C(=O)Cn2c(CCCC(F)(F)F)nc(-c3ccc(C(F)(F)F)cc3)cc2=O)CC1` [Compound I-0356] showed an IC50 of less than 10 nM.
For `Cc1nc(C2=CCC(C(F)(F)F)CC2)cc(=O)n1Cc1cccc(C(=O)O)c1` (stereo not shown) [Compound I-0262], the IC50 was 100 to 1000 nM.
`CCOC(=O)c1noc(Cn2c(CCCC(F)(F)F)nc(-c3ccc(Cl)cc3)cc2=O)n1` [Compound I-0311] showed an IC50 of 100 to 1000 nM.
In the case of `CCNC(=O)N1CCC(NC(=O)Cn2c(CCCC(F)(F)F)nc(-c3ccc(Cl)cc3)cc2=O)CC1` [Compound I-0128], the IC50 is reported as 10 to 100 nM.
`COC(=O)Cn1c(CCCC(F)(F)F)nc(-c2ccc(Cl)cc2)cc1=O` [Compound I-0109] was tested, and the IC50 was 10 to 100 nM.
Molecule `Cc1nc(-c2ccc(Cl)cc2NC(=O)C2CC2)cc(=O)n1Cc1cccc(C(=O)O)c1` [Compound I-0279] has an IC50 of less than 10 nM.
With `CCCCCc1nc(-c2ccc(Cl)cc2)cc(=O)n1CC(=O)N[C@@H](CO)Cc1ccccc1` [Compound I-0092] the IC50 was 100 to 1000 nM.
In the case of `CCCCCc1nc(-c2ccc(Cl)cc2)cc(=O)n1CC(=O)N(CCC(=O)O)C1CCCC1` [Compound I-0062], the IC50 is reported as 10 to 100 nM.
With `COC(=O)Nc1cc(Cl)ccc1-c1cc(=O)n(CC(=O)NC2(C(=N)NO)CC2)c(C)n1` [Compound I-0440] the IC50 was 10 to 100 nM.
`CCCCCc1nc(-c2ccc(Cl)cc2)cc(=O)n1CC(=O)NC1(c2cccnc2)CC1` [Compound I-0089] was tested, and the IC50 was 10 to 100 nM.
With `CC1(O)CN(C(=O)Cn2c(CCCC(F)(F)F)nc(-c3ccc(Cl)cc3CO)cc2=O)C1` [Compound I-0315] the IC50 was no less than 1000 nM.
Work on `Cc1nc(-c2ccc(C#N)cc2NC(=O)C(C)(C)C)cc(=O)n1CC(=O)NC1(c2nc(=O)o[nH]2)CC1` [Compound I-0385] yielded an IC50 of 10 to 100 nM.
With `COC(=O)Nc1cc(Cl)ccc1-c1cc(=O)n(CC(=O)N2C(C)(C)CC(O)CC2(C)C)c(C)n1` [Compound I-0384] the IC50 was no less than 1000 nM.
Work on `O=C(NCc1cnccn1)c1cccc(Cn2c(CCCC(F)(F)F)nc(-c3ccc(Cl)cc3)cc2=O)c1` [Compound I-0169] yielded an IC50 of 100 to 1000 nM.
Molecule `COC(=O)Nc1cc(Cl)ccc1-c1cc(=O)n(CC(=O)NC(C)(C)CF)c(C)n1` [Compound I-0415] has an IC50 of less than 10 nM.
`COC(=O)c1cccc(Cn2c(CCCC(F)(F)F)nc(-c3ccc(Cl)cc3)cc2=O)n1` [Compound I-0306] was tested, and the IC50 was 10 to 100 nM.
`CC(C)(C)C(=O)Nc1cc(Cl)ccc1-c1cc(=O)n(CC(=O)NCC2(CO)COC2)c(CCC(F)(F)F)n1` [Compound I-0360] showed an IC50 of 100 to 1000 nM.
`CCCCCc1nc(-c2ccc(Cl)cc2)cc(=O)n1CC(=O)N1CCOC[C@H]1C(=O)O` [Compound I-0067] showed an IC50 of 100 to 1000 nM.
Molecule `CCCCCNc1nc(-c2ccc(C(F)(F)F)cc2)cc(=O)n1Cc1cccc(C(=O)NCC(N)=O)c1` [Compound I-0013] has an IC50 of 100 to 1000 nM.
`Cc1nc(-c2ccc(Cl)cc2NC(=O)C2CC2)cc(=O)n1CC(=O)NCc1cc(=O)[nH]o1` [Compound I-0452] gave an IC50 of 10 to 100 nM.
Molecule `CCCCCc1nc(-c2ccc(Cl)cc2)cc(=O)n1CC(=O)NCCC(N)=O` [Compound I-0031] has an IC50 of 100 to 1000 nM.
Molecule `CCCCCc1nc(-c2ccc(Cl)cc2)cc(=O)n1CC(=O)NCC#N` [Compound I-0085] has an IC50 of 10 to 100 nM.
